How the values were obtained:
Acute toxicity, oral = details: mouse, in vivo, souris, per os, read-out: Dose léthale 50 approchée mg/kg per os
Source text: La toxicité a été déterminée chez la souris par voie orale. Les résultats sont donnés dans le tableau III.

[1] = tested on: pression artérielle de l'animal normotendu anesthésié; assay: Effect on arterial pressure of the anaesthetised normotensive animal, intravenous (rat); type: in vivo; details: voie intraveineuse
Source text: (§1) a) Effet sur la pression artérielle de l'animal normotendu anesthésié.
(§2) L'étude a été conduite chez le rat, le lapin et le chien. Le composé de l'exemple 2 a été administré par voie intraveineuse. Les différents paramètres enregistrés ont été les pressions artérielles systoliques, diastoliques et moyennes, la fréquence cardiaque, la vitesse d'éjection systolique (dp/dt). La force de contraction cardiaque, les débits artériel et veineux ont été enregistrés chez le chien uniquement.

[2] = tested on: pression artérielle de l'animal normotendu anesthésié; assay: Effect on arterial pressure of the anaesthetised normotensive animal, intravenous (rabbit); type: in vivo; details: lapin normotendu anesthésié, voie intraveineuse, dès la dose de 0,250 mg/kg; proportionnelle aux doses en intensité et en durée
Source text: as §1, §2

[3] = tested on: pression artérielle de l'animal normotendu anesthésié; assay: Effect on arterial pressure of the anaesthetised normotensive animal, intravenous (dog); type: in vivo; details: chien normotendu anesthésié, voie intraveineuse
Source text: as §1, §2

[4] = tested on: pression artérielle de l'animal hypertendu non anesthésié; assay: Effect on arterial pressure of the non-anaesthetised hypertensive animal, oral (rat); type: in vivo
Source text: (§3) b) Effet sur la pression artérielle de l'animal hypertendu non anesthésié.
(§4) L'étude a été conduite chez le rat et chez le chien. On a utilisé, d'une part, des animaux (rats) présentant une hypertension expérimentale induite par ligature de l'aorte abdominale entre les deux artères rénales et, d'autre part, des animaux (rats et chiens) porteurs d'hypertension spontanée.
(§5) Le composé de l'exemple 2 a été administré par voie orale soit en prise unique pour connaître la cinétique d'action du produit, soit en traitement prolongé.

[5] = tested on: pression artérielle de l'animal hypertendu non anesthésié; assay: Effect on arterial pressure of the non-anaesthetised hypertensive animal, oral (dog); type: in vivo, chien
Source text: as §3, §4, §5

système nerveux central = assay: Effects on the central nervous system, oral; type: in vivo; details: souris, voie orale, doses provoquant une activité antihypertensive chez le rat
Source text: Ces effets centraux sont peut-être directement liés à l'action hypotensive

rats = assay: Chronic toxicity, mixed with food for 45 days; type: in vivo; details: 75 mg/kg/jour, mélangé à la nourriture, 45 jours
Source text: Le composé de l'exemple 2, mélangé à la nourriture, a été administré 45 jours de suite à des rats.

[6] = dès la dose de 0,250 mg/kg, proportionnelle aux doses en intensité et en durée

Question: With `Cc1ccc(C(=O)C2CCN(CC3COc4ccccc4O3)CC2)cc1` (centres unmarked) [Exemple 10] as the compound, how does the LD50 (Acute toxicity, oral) read?
Answer: 1460 mg/kg

Question: Which LD50 (Acute toxicity, oral) does the source give for `O=C(c1ccccc1)C1CCN(CC2COc3ccccc3O2)CC1` (centres unmarked) [Exemple 9, Ghlorhydratede la 1-[(2,3-dihydro-4H-1,4-benzodioxin)-2-ylméthyl]-4-benzoyl pipéridine] here?
Answer: 2400 mg/kg

Question: With `O=C(c1ccc(Cl)cc1)C1CCN(CC2COc3ccccc3O2)CC1` (centres unmarked) [Exemple 6, Chlorhydratede la 1-[(2,3-dihydro-4H-1 ,4-benzodioxine)-2-ylméthyl]-4-(4-chlorobenzoyl) pipéridine] as the compound, how does the LD50 (Acute toxicity, oral) read?
Answer: 880 mg/kg

Question: Which fréquence cardiaque [1] does the source give for `O=C(c1ccc(F)cc1)C1CCN(CC2COc3ccccc3O2)CC1` (centres unmarked) [Exemple 2, Chlorhydratede la 1-[(2,3-dihydro-4H-1,4-benzodioxin)-2-ylméthyl]-4-(4-fluorobenzoyl) pipéridine] here?
Answer: bradycardie

Question: And the “pression artérielle” value [1, 6]?
Answer: chute tensionnelle systo- diastolique très rapide

Question: What about the “pression artérielle” value [2] of the same compound?
Answer: chute tensionnelle systo- diastolique très rapide

Question: What about the “pression artérielle” value [3, 6] of the same compound?
Answer: chute tensionnelle systo- diastolique très rapide

Question: And the “dp/dt (vitesse d'éjection systolique)” value ([3]; parallèlement à l'hypotension)?
Answer: augmentation

Question: And the “débits artériel et veineux” value ([3]; parallèlement à l'hypotension)?
Answer: augmentation

Question: And the “force de contraction cardiaque” value ([3]; parallèlement à l'hypotension)?
Answer: augmentation

Question: What about the “Diminution de la pression artérielle en mm de mercure Chez le rat” value ([4]; 10 mg/kg P.O., 10mn) of the same compound?
Answer: 39±11 mm de mercure

Question: What about the “Diminution de la pression artérielle en mm de mercure Chez le rat” value ([4]; 10 mg/kg P.O., 30mn) of the same compound?
Answer: 45±10 mm de mercure

Question: And the “Diminution de la pression artérielle en mm de mercure Chez le rat” value ([4]; 10 mg/kg P.O., 1h)?
Answer: 33±9 mm de mercure

Question: What about the “Diminution de la pression artérielle en mm de mercure Chez le rat” value ([4]; 10 mg/kg P.O., 2h) of the same compound?
Answer: 20±6 mm de mercure

Question: What about the “Diminution de la pression artérielle en mm de mercure Chez le rat” value ([4]; 10 mg/kg P.O., 6h) of the same compound?
Answer: 6±3 mm de mercure

Question: What about the “Diminution de la pression artérielle en mm de mercure Chez le rat” value ([4]; 20 mg/kg P.O., 10mn) of the same compound?
Answer: 66±8 mm de mercure

Question: What about the “Diminution de la pression artérielle en mm de mercure Chez le rat” value ([4]; 20 mg/kg P.O., 30mn) of the same compound?
Answer: 63±6 mm de mercure

Question: And the “Diminution de la pression artérielle en mm de mercure Chez le rat” value ([4]; 20 mg/kg P.O., 1h)?
Answer: 49±7 mm de mercure

Question: And the “Diminution de la pression artérielle en mm de mercure Chez le rat” value ([4]; 20 mg/kg P.O., 2h)?
Answer: 37±7 mm de mercure

Question: And the “Diminution de la pression artérielle en mm de mercure Chez le rat” value ([4]; 20 mg/kg P.O., 6h)?
Answer: 29±6 mm de mercure

Question: And the “Diminution de la pression artérielle en mm de mercure Chez le rat” value ([4]; 20 mg/kg P.O., 12h)?
Answer: 17±7 mm de mercure

Question: What about the “Diminution de la pression artérielle en mm de mercure Chez le rat” value ([4]; 20 mg/kg P.O., 18h) of the same compound?
Answer: 8±4 mm de mercure

Question: And the “Diminution de la pression artérielle en mm de mercure Chez le rat” value ([4]; 20 mg/kg P.O., 24h)?
Answer: 3±3 mm de mercure

Question: And the “Diminution de la pression artérielle en mm de mercure Chez le rat” value ([4]; 50 mg/kg P.O., 10mn)?
Answer: 68±6 mm de mercure

Question: And the “Diminution de la pression artérielle en mm de mercure Chez le rat” value ([4]; 50 mg/kg P.O., 30mn)?
Answer: 68±5 mm de mercure

Question: And the “Diminution de la pression artérielle en mm de mercure Chez le rat” value ([4]; 50 mg/kg P.O., 1h)?
Answer: 52±6 mm de mercure

Question: And the “Diminution de la pression artérielle en mm de mercure Chez le rat” value ([4]; 50 mg/kg P.O., 2h)?
Answer: 38±7 mm de mercure

Question: What about the “Diminution de la pression artérielle en mm de mercure Chez le rat” value ([4]; 50 mg/kg P.O., 6h) of the same compound?
Answer: 32±8 mm de mercure

Question: And the “Diminution de la pression artérielle en mm de mercure Chez le rat” value ([4]; 50 mg/kg P.O., 12h)?
Answer: 16±7 mm de mercure

Question: What about the “Diminution de la pression artérielle en mm de mercure Chez le rat” value ([4]; 50 mg/kg P.O., 18h) of the same compound?
Answer: 8±5 mm de mercure

Question: And the “Diminution de la pression artérielle en mm de mercure Chez le rat” value ([4]; 50 mg/kg P.O., 24h)?
Answer: 5±5 mm de mercure

Question: What about the action antihypertensive ([4]; rat hypertendu, voie orale, prise unique ou traitement prolongé, augmentant avec les doses jusqu'à un plafond) of the same compound?
Answer: action antihypertensive nette, prolongée

Question: What about the “Diminution de la pression artérielle en mm de mercure Chez le chien” value ([5]; 10 mg/kg P.O., 20mn) of the same compound?
Answer: 10±4 mm de mercure

Question: What about the “Diminution de la pression artérielle en mm de mercure Chez le chien” value ([5]; 10 mg/kg P.O., 40mn) of the same compound?
Answer: 10±4 mm de mercure

Question: What about the “Diminution de la pression artérielle en mm de mercure Chez le chien” value ([5]; 10 mg/kg P.O., 1h) of the same compound?
Answer: 18±3 mm de mercure

Question: What about the “Diminution de la pression artérielle en mm de mercure Chez le chien” value ([5]; 10 mg/kg P.O., 2h) of the same compound?
Answer: 11±1 mm de mercure

Question: And the “Diminution de la pression artérielle en mm de mercure Chez le chien” value ([5]; 10 mg/kg P.O., 5h)?
Answer: 4±3 mm de mercure

Question: And the “Diminution de la pression artérielle en mm de mercure Chez le chien” value ([5]; 10 mg/kg P.O., 7h)?
Answer: 1±2 mm de mercure

Question: What about the “Diminution de la pression artérielle en mm de mercure Chez le chien” value ([5]; 10 mg/kg P.O., 24h) of the same compound?
Answer: 0±1 mm de mercure

Question: What about the “Diminution de la pression artérielle en mm de mercure Chez le chien” value ([5]; 20 mg/kg P.O., 20mn) of the same compound?
Answer: 12±4 mm de mercure

Question: And the “Diminution de la pression artérielle en mm de mercure Chez le chien” value ([5]; 20 mg/kg P.O., 40mn)?
Answer: 26±3 mm de mercure

Question: What about the “Diminution de la pression artérielle en mm de mercure Chez le chien” value ([5]; 20 mg/kg P.O., 1h) of the same compound?
Answer: 38±2 mm de mercure

Question: And the “Diminution de la pression artérielle en mm de mercure Chez le chien” value ([5]; 20 mg/kg P.O., 2h)?
Answer: 37±3 mm de mercure

Question: What about the “Diminution de la pression artérielle en mm de mercure Chez le chien” value ([5]; 20 mg/kg P.O., 5h) of the same compound?
Answer: 18±7 mm de mercure

Question: What about the “Diminution de la pression artérielle en mm de mercure Chez le chien” value ([5]; 20 mg/kg P.O., 7h) of the same compound?
Answer: 8±1 mm de mercure

Question: And the “Diminution de la pression artérielle en mm de mercure Chez le chien” value ([5]; 20 mg/kg P.O., 24h)?
Answer: 2±3 mm de mercure

Question: And the “Diminution de la pression artérielle en mm de mercure Chez le chien” value ([5]; 50 mg/kg P.O., 20mn)?
Answer: 21±9 mm de mercure

Question: And the “Diminution de la pression artérielle en mm de mercure Chez le chien” value ([5]; 50 mg/kg P.O., 40mn)?
Answer: 31±6 mm de mercure

Question: And the “Diminution de la pression artérielle en mm de mercure Chez le chien” value ([5]; 50 mg/kg P.O., 1h)?
Answer: 40±8 mm de mercure

Question: And the “Diminution de la pression artérielle en mm de mercure Chez le chien” value ([5]; 50 mg/kg P.O., 2h)?
Answer: 46±3 mm de mercure

Question: What about the “Diminution de la pression artérielle en mm de mercure Chez le chien” value ([5]; 50 mg/kg P.O., 5h) of the same compound?
Answer: 28±8 mm de mercure

Question: And the “Diminution de la pression artérielle en mm de mercure Chez le chien” value ([5]; 50 mg/kg P.O., 7h)?
Answer: 22±6 mm de mercure

Question: And the “Diminution de la pression artérielle en mm de mercure Chez le chien” value ([5]; 50 mg/kg P.O., 24h)?
Answer: 1±2 mm de mercure

Question: And the action antihypertensive ([5]; chien hypertendu, voie orale, prise unique ou traitement prolongé, augmentant avec les doses jusqu'à un plafond)?
Answer: action antihypertensive nette, prolongée

Question: And the “effet antihypertenseur après arrêt du traitement” value ([5]; chien, après arrêt du traitement, retour progressif à la normale)?
Answer: persistance de l'effat antihypertenseur

Question: And the agressivité (système nerveux central)?
Answer: diminution

Question: What about the “sommeil expérimental” value (système nerveux central) of the same compound?
Answer: potentialisation

Question: What about the sédation (système nerveux central) of the same compound?
Answer: sédation générale

Question: What about the LD50 (Acute toxicity, oral) of the same compound?
Answer: 880 mg/kg

Question: What about the “anomalie clinique, hématologique, anatomique” value (rats) of the same compound?
Answer: aucune anomalie ni clinique, ni hématologique, ni anatomique

Question: And the “taux des triglycérides” value (rats)?
Answer: chute nette et isolée

Question: For `CCc1ccc(C(=O)C2CCN(CC3COc4ccccc4O3)CC2)cc1` (centres unmarked) [Exemple 11, Chlorhydratede la 1-[(2,3-dihydro-4H-1,4-benzodioxin)-2-ylméthyl]-4-(4-éthylbenzoyl) pipéridine], which LD50 (Acute toxicity, oral) is on record?
Answer: 1200 mg/kg

Question: Which LD50 (Acute toxicity, oral) does the source give for `O=C(Oc1ccc(C(=O)C2CCN(CC3COc4ccccc4O3)CC2)cc1)c1cccnc1` (centres unmarked) [Exemple 8, Nicotinatede la 1-[(2,3-dihydro-4H-1,4-benzodioxin)-2-ylméthyl]-4-(4-hydroxybenzoyl) pipéridine] here?
Answer: > 3200 mg/kg

Question: For `COc1ccc(C(=O)C2CCN(CC3COc4ccccc4O3)CC2)cc1` (centres unmarked) [Exemple 4, Fumaratede la 1-[(2,3-dihydro-4H-1,4-benzodioxin)-2-ylméthyl]-4-(4-méthoxybenzoyl) pipéridine], which LD50 (Acute toxicity, oral) is on record?
Answer: 364 mg/kg

Question: With `O=C(c1ccc(O)cc1)C1CCN(CC2COc3ccccc3O2)CC1` (centres unmarked) [Exemple 7, 1-[(2,3-Dihydro-4H-1,4-benzodioxin)-2-ylméthyl]-4-(4-hydroxy-benzoyl) pipéridine] as the compound, how does the LD50 (Acute toxicity, oral) read?
Answer: 440 mg/kg

Reference: EP0014295B1, “Benzodioxan derivatives, process for their preparation and their therapeutical applications” (Bouchara, Emile Dr., priority 1979, dated 1980)
